According to patent US20160296590A1, “METHOD OF TREATING OR PREVENTING EPILEPSY OR SEIZURES USING ONE OR MORE NEURAL REGENERATION PEPTIDES” (CURONZ HOLDINGS COMPANY LIMITED, priority 2013, published 2016):
“Also recorded” adds a separate entry of the source. Where no end group is shown, it is not given here. [ ]: non-standard residue; d: D form. Aib = CC(C)(N)C(=O)O

What was measured:
Assay type in all cases: in vivo, rat
[1] = system: PTZ-induced epileptiform burst discharges; experiment: Electrocorticogram (ECoG) recording of PTZ-induced epileptiform burst discharges
Procedure: Adult male wistar rats (200-250g) were housed under controlled conditions (ambient temperature=22° C., humidity=40%; 12-h light/dark cycle) with food and water ad libitum. Animals were age- and weight-matched and randomly received by intra peritoneal injection NRP2945 in saline (5, 10 or 20 μg/kg) or saline alone (control) thirty minutes before the i.p. injection of pentylenetetrazol (PTZ; 50 mg/kg dissolved in 0.9% saline). All experiments were carried out according to the protocol approved by the Animal Ethics Committee of Shefa Neuroscience Center, Tehran, Iran. Animals were anaesthetized with chloral hydrate 3.5% (dissolved in normal 0.9% saline; Sigma-Aldrich) and the head of each rat was placed in a stereotaxical instrument (Stoelting Instruments, USA). Epidural recording electrodes were stereotaxically implanted above the left and right somatosensory cortices (3.0 mm posteriorly to Bregma and 3.0 mm laterally from the midline) under continuous chloral hydrate anesthesia. The reference electrode is located at the nasal bone. ECoG was recorded via monopolar silver electrodes connected to an amplifier (EXT-02 F, NPI, Germany; with band-pass filters at […], sampling rate 10 kHz) and stored by a digital oscilloscope. ECoG recordings were performed for 30 minutes after receiving saline or NRP2945 (5, 10, 20 μg/kg) and 30 minutes after the injection of PTZ. Latency, duration, amplitude, and frequency of epileptic spikes activity were calculated using AxoScope 10 software (Axon Instruments, CA, USA).

normal neurons = experiment: Volume-weighted mean volume of normal neurons (stereology) after PTZ-induced seizures; set-up: Mean volume of normal neurons CA1 / Mean volume of normal neurons CA3 / Mean volume of normal neurons Cortex: unit not given here; details: for Mean volume of normal neurons CA1: hippocampal CA1; for Mean volume of normal neurons CA1 / Mean volume of normal neurons CA3 / Mean volume of normal neurons Cortex: rats; for Mean volume of normal neurons CA3: hippocampal CA3; for Mean volume of normal neurons Cortex: somatosensory cortex
Procedure: (§1) Adult male wistar rats (200-250g) were housed under controlled conditions (ambient temperature=22° C., humidity=40%; 12-h light/dark cycle) with food and water ad libitum. Animals were age- and weight-matched and randomly received by intra peritoneal injection NRP2945 in saline (5, 10 or 20 μg/kg) or saline alone (control) thirty minutes before the i.p. injection of pentylenetetrazol (PTZ; 50 mg/kg dissolved in 0.9% saline). All experiments were carried out according to the protocol approved by the Animal Ethics Committee of Shefa Neuroscience Center, Tehran, Iran.
The volume-weighted mean volume of normal neurons was calculated directly by point-sampled intercept on 10 uniform systematically and randomly sampled microscopic fields of the pyramidal layers of hippocampal areas CA1 and CA3as well as the somatosensory cortex. A lattice of test points on lines was superimposed randomly onto the traced nuclear profiles in each particular field. Nuclei of neurons were marked and two isotropic lines from randomly selected directions were centred on this neuron and superimposed. The intersection of each line with the outer surface of the respective neuron's soma was marked. These lines produced point-sampled intercepts, the lengths of which were measured and cubed. The mean was multiplied by […], and finally all intercepts were averaged to give an estimate of the volume-weighted mean neuronal volume. For quantitative analysis of dark neurons, the physical dissector method was used. Ten pairs of sections, with […] distance, were collected from each brain. The first section of each pair was designated as the reference and the second one was used for comparison. On each pair of sections, at least 10 microscopic fields were selected by uniform systematic-random sampling in every area of interest. Using the unbiased frame and physical dissector counting rule, the counting of dark neurons in each field was carried out (Jafarian et al., 2010).
Animals were deeply anaesthetised with chloral hydrate (3.5%; Sigma-Aldrich) and perfused transcardially with 200 ml of saline followed by 200 ml of a solution containing 1% paraformaldehyde (PFA). After perfusion, all rats were decapitated and the brains were removed. The brains were kept in 1% PFA for at least 10 days and were then processed for histological studies as follows. The brain was cut into transverse sections of 8 µm thickness. Sections were stained with toluidine blue. The sections were selected by uniform systematic random sampling in every area of interest. Different areas (hippocampal CA1 and CA3 areas and somatosensory neocortex) were studied under a light microscope (BX51, Olympus, Japan) equipped with a digital camera. Digital photographs were taken using a 40x oil immersion objective lens (Olympus, Japan). The magnification was calculated using an objective micrometer.

GABAA receptor β subunit = experiment: Immunohistochemistry of GABAA receptor β subunit expression after PTZ injection; details: 20 μg/kg; only CA1 hippocampal region; P<0.001
Procedure: as §1
(§2) Animals were deeply anaesthetized with chloral hydrate and perfused transcardially with 200 ml of saline followed by 600 ml of 4% PFA solution. The brains were extracted and kept in 4% PFA for at least 4 days at 4° C. and were then processed for immunohistochemistry studies. The serial (8 μm) coronal sections were prepared. Three paraffin embedded sections in 1.8 to 3.3 mm posterior to the bregma from each animal were cleared and rehydrated through a series of xylol and alcohol and washed with phosphate buffered saline (PBS) three times and incubated in blockage solution (3% H2O2/methanol for 5 min). After washing in PBS, slides were boiled in sodium citrate buffer at 95° C, for 10 min. […]

GABAA receptor α subunit = experiment: Immunohistochemistry of GABAA receptor α subunit expression after PTZ injection; details: 20 μg/kg; somatosensory cortex and hippocampal CA1 area; P<0.001
Procedure: as §1, §2

PTZ-induced seizures = experiment: Behavioural test of PTZ-induced seizure attacks; details: for Behavioural test Severity: seizure score 0-6
Procedure: Adult male wistar rats (200-250g) were housed under controlled conditions (ambient temperature=22° C., humidity=40%; 12-h light/dark cycle) with food and water ad libitum. Animals were age- and weight-matched and randomly received by intra peritoneal injection NRP2945 in saline (5, 10 or 20 μg/kg) or saline alone (control) thirty minutes before the i.p. injection of pentylenetetrazol (PTZ; 50 mg/kg dissolved in 0.9% saline). All experiments were carried out according to the protocol approved by the Animal Ethics Committee of Shefa Neuroscience Center, Tehran, Iran. After each PTZ-injection, the convulsive behaviour of each rat was assessed for 30 min, and resultant seizures were scored as follows: 0=normal behaviour; 1=immobility; 2=rigid posture; 3=repetitive scratching, circling, or head bobbing; 4=forelimb clonus, rearing, and falling; 5=repeated occurrence of level four behaviour, 6=severe tonic-clonic behaviour or status epilepticus (Karimzadeh et al., 2013). Latency of seizure onset was defined as the average length of time in seconds between PTZ administration an initially detectable and seizure. A generalized seizure was characterised by symmetric forelimb and hind limb tonus, followed by hind limb clonus and subsequent jumping activity. Because some animals occasionally had more than one seizure, the seizure duration was assessed as the sum of durations of these multiple seizures.

dark neurons = experiment: Dark neuron count (toluidine blue, physical dissector) after PTZ-induced seizures; details: hippocampal CA1 and CA3 areas and somatosensory cortex, 5, 10 and 20 μg/kg
Procedure: as §1
The volume-weighted mean volume of normal neurons was calculated directly by point-sampled intercept on 10 uniform systematically and randomly sampled microscopic fields of the pyramidal layers of hippocampal areas CA1 and CA3as well as the somatosensory cortex. A lattice of test points on lines was superimposed randomly onto the traced nuclear profiles in each particular field. […] These lines produced point-sampled intercepts, the lengths of which were measured and cubed. […] For quantitative analysis of dark neurons, the physical dissector method was used. […]
Animals were deeply anaesthetised with chloral hydrate (3.5%; Sigma-Aldrich) and perfused transcardially with 200 ml of saline followed by 200 ml of a solution containing 1% paraformaldehyde (PFA). […] The magnification was calculated using an objective micrometer.

GAD-65 = experiment: Immunohistochemistry of GAD-65 expression after PTZ injection; details: 20 μg/kg; somatosensory cortex, CA1 and CA3 hippocampal areas; P<0.001
Procedure: as §1, §2

[2] = 5 μg/kg i.p. 30 min before PTZ, anaesthetized rats
[3] = 10 μg/kg i.p. 30 min before PTZ, anaesthetized rats
[4] = 5 μg/kg i.p. 30 min before PTZ, rats
[5] = 10 μg/kg i.p. 30 min before PTZ, rats

GlyArgArgAlaAlaProGlyArgAibGlyGly (GRRAAPGR[Aib]GG) [NRP2945, 11-residue neural regeneration peptide, derived from amino acid position 40-50 of human CAPS2]
ECoG Amplitude [1, 2]: 1.1 ± 0.04 mV
ECoG Duration [1, 2]: 60 ± 1.2 s
ECoG Frequency [1, 2]: 4.7 ± 0.3 per min
ECoG Latency [1, 2]: 326 ± 24 s
ECoG Amplitude [1, 3]: 0.84 ± 0.1 mV
ECoG Duration [1, 3]: 60 ± 2.1 s
ECoG Frequency [1, 3]: 6.67 ± 0.9 per min
ECoG Latency [1, 3]: 417 ± 37 s
development of epileptiform field potentials ([1]; 20 μg/kg i.p. 30 min before PTZ, anaesthetized rats): completely prevented
amplitude of epileptiform field potentials compared to control ([1]; 5 and 10 μg/kg i.p., P≦0.001): significantly smaller; also recorded: decreased
duration of epileptiform field potentials compared to control ([1]; 5 and 10 μg/kg i.p., P≦0.001): significantly shorter; also recorded: decreased
latency time to onset of first spike waves compared to control ([1]; 5 and 10 μg/kg i.p., P≦0.001): increased
repetition rate (frequency) of epileptiform field potentials compared to control ([1]; 5 and 10 μg/kg i.p., P≦0.001): significantly lower; also recorded: decreased
mean volume of normal neurons after PTZ-induced seizures compared to control (normal neurons; 5 μg/kg): did not affect
mean volume-weighted volume of normal neurons compared to control (normal neurons; 10 and 20 μg/kg, CA1, CA3 and somatosensory cortex, P≦0.001): higher; also recorded: larger
Mean volume of normal neurons CA1 (normal neurons; 5 μg/kg i.p. before PTZ): 380.9 ± 7.1
Mean volume of normal neurons CA1 (normal neurons; 10 μg/kg i.p. before PTZ): 413.1 ± 4.4
Mean volume of normal neurons CA1 (normal neurons; 20 μg/kg i.p. before PTZ): 451.9 ± 5.5
Mean volume of normal neurons CA3 (normal neurons; 5 μg/kg i.p. before PTZ): 387.9 ± 3.2
Mean volume of normal neurons CA3 (normal neurons; 10 μg/kg i.p. before PTZ): 438.6 ± 5.6
Mean volume of normal neurons CA3 (normal neurons; 20 μg/kg i.p. before PTZ): 474.1 ± 5.1
Mean volume of normal neurons Cortex (normal neurons; 5 μg/kg i.p. before PTZ): 340.8 ± 3.1
Mean volume of normal neurons Cortex (normal neurons; 10 μg/kg i.p. before PTZ): 395.7 ± 6.1
Mean volume of normal neurons Cortex (normal neurons; 20 μg/kg i.p. before PTZ): 387.9 ± 7.5
expression of GABAA receptor β subunit compared to control (GABAA receptor β subunit): higher; also recorded: enhanced
expression of GABAA receptor α subunit compared to control (GABAA receptor α subunit): higher expression; also recorded: significant enhancement
Behavioural test Latency (PTZ-induced seizures; 5 μg/kg i.p. 30 min before PTZ 50 mg/kg i.p., rats): 230.2 ± 10.6 s
Behavioural test Duration (PTZ-induced seizures; [4]): 35.83 ± 5.9 s
Behavioural test Severity (PTZ-induced seizures; [4]): 3.67 ± 0.21
Behavioural test Latency (PTZ-induced seizures; 10 μg/kg i.p. 30 min before PTZ 50 mg/kg i.p., rats): 150.2 ± 7.4 s
Behavioural test Duration (PTZ-induced seizures; [5]): 37.67 ± 7.3 s
Behavioural test Severity (PTZ-induced seizures; [5]): 3.67 ± 0.21
PTZ-induced seizures or convulsions (PTZ-induced seizures; 20 μg/kg i.p. 30 min before PTZ, rats): completely prevented
latency of seizure attacks compared to control (PTZ-induced seizures; 5 and 10 μg/kg i.p.): not affecting
severity of seizure attacks compared to control (PTZ-induced seizures; 5 and 10 μg/kg i.p.): not affecting
total duration of seizure attacks compared to control (PTZ-induced seizures; 5 and 10 μg/kg i.p., p<0.05, n=12): reduced
Density (production) of dark neurons in comparison to saline (dark neurons): significantly decreased
Density (production) of dark neurons in comparison to saline (dark neurons; listed as NRP 2945): inhibited
expression of GAD-65 immunoreactive neurons compared to control (GAD-65): significantly higher; also recorded: significant increase
